We go through ten molecules from PubChem BioAssay (NCI).

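Where inhibition never reached the appropriate level, the endpoint shown equals the highest concentration tested. Otherwise, values were interpolated linearly from a five-concentration, 48-hour dose response in 96-well plates. Abbreviation: GI50, concentration required for 50% inhibition of growth. TGI denotes the concentration required for complete inhibition of growth.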

Among the test systems are K-562 leukemia; KM12 colon; LOX IMVI melanoma; M14 melanoma; MOLT-4 leukemia; NCI-H522 lung; SK-MEL-5 melanoma; SK-OV-3 ovarian; SNB-19 CNS; MDA-MB-231 breast.
What all share (test): NCI tumour cell line growth inhibition, 48 h

In the case of `CCOC(=O)COc1cccc2occc(=O)c12`, the TGI in the assay with K-562 leukemia, with KM12 colon, with LOX IMVI melanoma, in the assay on M14 melanoma, in the assay with MOLT-4 leukemia and with NCI-H522 lung was greater than 100 µM in each case. Moreover, the TGI in the assay on SK-MEL-5 melanoma, with SK-OV-3 ovarian and in the assay on SNB-19 CNS was greater than 100 µM in each case.

For the molecule `O=C1c2ccccc2-c2c1c1ccc([N+](=O)[O-])cc1c(=O)n2CCCCl`, the GI50 in the assay on K-562 leukemia is 25.7 µM; with KM12 colon it was greater than 100 µM; in the assay on LOX IMVI melanoma it was 3.24 µM; in the assay on M14 melanoma it was 47 µM; in the assay on MDA-MB-231 breast it was 11.3 µM; with MOLT-4 leukemia, 2.1 µM. The GI50 was 86.8 µM in the assay with NCI-H522 lung, 0.874 µM in the assay with SK-MEL-5 melanoma and 63.4 µM with SK-OV-3 ovarian. Further, the TGI with K-562 leukemia is greater than 100 µM; in the assay with KM12 colon, greater than 100 µM; in the assay with LOX IMVI melanoma it was greater than 100 µM; with M14 melanoma, greater than 100 µM; in the assay on MDA-MB-231 breast, 57.7 µM; with MOLT-4 leukemia, greater than 100 µM. Besides, the TGI is greater than 100 µM in the assay on NCI-H522 lung, 5.89 µM with SK-MEL-5 melanoma and greater than 100 µM with SK-OV-3 ovarian.

Turning to `CCOC(=O)c1cc2cc(OCc3ccccc3)ccc2[nH]1`, the GI50 was greater than 100 µM in the assay on KM12 colon; greater than 100 µM in the assay on LOX IMVI melanoma; greater than 100 µM in the assay with M14 melanoma; 49.2 µM with MDA-MB-231 breast; 36.7 µM in the assay on MOLT-4 leukemia; greater than 100 µM with NCI-H522 lung. For the same molecule, the GI50 in the assay on SK-MEL-5 melanoma, in the assay with SK-OV-3 ovarian and with SNB-19 CNS was greater than 100 µM in each case. Besides, the TGI with KM12 colon, in the assay with LOX IMVI melanoma, in the assay on M14 melanoma, in the assay with MDA-MB-231 breast, in the assay with MOLT-4 leukemia and in the assay with NCI-H522 lung was greater than 100 µM each time. For the same molecule, the TGI with SK-MEL-5 melanoma, in the assay with SK-OV-3 ovarian and with SNB-19 CNS was greater than 100 µM in each case.

Take `O=CC(O)C(O)C(OC1OC(CO)C(O)C(O)C1O)C(O)CO` (centres undefined) (tested in a mixture with another compound): the TGI was 98.7 µM with K-562 leukemia; 50.8 µM with KM12 colon; greater than 100 µM in the assay with M14 melanoma; 91.5 µM in the assay with MDA-MB-231 breast; greater than 100 µM in the assay with NCI-H522 lung; greater than 100 µM in the assay on SK-MEL-5 melanoma. In addition, the TGI in the assay on SK-OV-3 ovarian and in the assay with SNB-19 CNS was greater than 100 µM throughout.

On to `O=S(=O)(Cc1ccccc1)SCc1ccccc1`, for which the TGI in the assay on K-562 leukemia is 33.5 µM; with KM12 colon it was greater than 100 µM; in the assay with LOX IMVI melanoma, 30.9 µM; with M14 melanoma, 27.6 µM; in the assay on MOLT-4 leukemia, 14.3 µM; in the assay on NCI-H522 lung, 25.2 µM. For the same molecule, the TGI in the assay with SK-MEL-5 melanoma is 48.5 µM; with SK-OV-3 ovarian, 97.3 µM; in the assay on SNB-19 CNS it was greater than 100 µM.

`COC(=O)c1ccc2c(c1)C(=O)c1c-2n(CCCCl)c(=O)c2cc(OC)c(OC)cc12`: the GI50 in the assay on K-562 leukemia, in the assay on KM12 colon, in the assay on LOX IMVI melanoma, in the assay with M14 melanoma, in the assay on MDA-MB-231 breast and with NCI-H522 lung was greater than 100 µM each time. For the same molecule, the GI50 in the assay with SK-MEL-5 melanoma was greater than 100 µM; in the assay on SK-OV-3 ovarian, 44.1 µM; with SNB-19 CNS it was greater than 100 µM. For the same molecule, the TGI in the assay with K-562 leukemia, with KM12 colon, with LOX IMVI melanoma, in the assay on M14 melanoma, in the assay on MDA-MB-231 breast and with NCI-H522 lung was greater than 100 µM throughout. Also, the TGI in the assay with SK-MEL-5 melanoma, in the assay on SK-OV-3 ovarian and with SNB-19 CNS was greater than 100 µM in each case.

Turning to `CC(=O)OC1COC(Oc2c(C)c3c4c(c2O)[C@@H](C)CC[C@@H]4[C@@H](C)C[C@H]3C=C(C)C)C(O)C1O` (some centres undefined), the GI50 in the assay with K-562 leukemia was 10.3 µM; in the assay with KM12 colon, 17.7 µM; in the assay with LOX IMVI melanoma, 19.1 µM; in the assay on M14 melanoma, 13 µM; in the assay on MOLT-4 leukemia it was 2.24 µM; in the assay with NCI-H522 lung, 30.5 µM. Further, the GI50 with SK-MEL-5 melanoma was 16.4 µM; in the assay on SK-OV-3 ovarian it was 20.7 µM; in the assay on SNB-19 CNS, 28.8 µM. For the same molecule, the TGI with K-562 leukemia was 27.1 µM; with KM12 colon, 33.8 µM; with LOX IMVI melanoma, 40 µM; with M14 melanoma it was 28.6 µM; in the assay on MOLT-4 leukemia, 22.5 µM; in the assay with NCI-H522 lung, greater than 100 µM. Also, the figures for the TGI in the assay on SK-MEL-5 melanoma, with SK-OV-3 ovarian and with SNB-19 CNS were 34.1 µM, 44 µM and 73.7 µM, respectively.

Consider `O=C(Nc1cccc(-n2cc(-c3ccncc3)c(-c3ccc(O)c(Cl)c3)n2)c1)Nc1ccc(Cl)c(Cl)c1`, for which the GI50 was 1.4 µM in the assay with KM12 colon; 1.38 µM with LOX IMVI melanoma; 1.59 µM in the assay with M14 melanoma; 1.85 µM with MDA-MB-231 breast; 1.43 µM with MOLT-4 leukemia; 1.3 µM in the assay with NCI-H522 lung. Moreover, the GI50 with SK-MEL-5 melanoma is 1.56 µM; with SK-OV-3 ovarian it was 3.43 µM; with SNB-19 CNS, 3.06 µM. In addition, the TGI in the assay on KM12 colon is 3.11 µM; with LOX IMVI melanoma it was 5.06 µM; in the assay with M14 melanoma, 3.79 µM; with MDA-MB-231 breast, greater than 100 µM; in the assay on MOLT-4 leukemia, 4.52 µM; in the assay with NCI-H522 lung, 3.76 µM. Moreover, the TGI is 2.99 µM in the assay on SK-MEL-5 melanoma, greater than 100 µM in the assay on SK-OV-3 ovarian and greater than 100 µM with SNB-19 CNS.

On to `CC1=C(C(=O)CC(=O)C(=O)Nc2ccccc2C)Sc2ccccc2N1`, for which the TGI in the assay with K-562 leukemia was greater than 100 µM; in the assay with KM12 colon, greater than 100 µM; in the assay on LOX IMVI melanoma it was greater than 57.4 µM; with M14 melanoma, greater than 100 µM; in the assay with MOLT-4 leukemia, greater than 100 µM; in the assay on NCI-H522 lung, greater than 100 µM. The TGI with SK-MEL-5 melanoma, in the assay with SK-OV-3 ovarian and with SNB-19 CNS was greater than 100 µM each time.

As for `Cc1cc(OC(=O)c2c(C)cc(OC(=O)c3c(C)cc(O)cc3O)cc2O)cc(O)c1C(=O)O`, the TGI in the assay with K-562 leukemia, in the assay on KM12 colon, in the assay on LOX IMVI melanoma, in the assay on M14 melanoma, in the assay with MOLT-4 leukemia and in the assay with NCI-H522 lung was greater than 100 µM each time. The TGI with SK-MEL-5 melanoma, in the assay with SK-OV-3 ovarian and with SNB-19 CNS was greater than 100 µM each time.
